Measured values as given in ChEMBL document CHEMBL1275576, “In vitro activity of tomopenem (CS-023/RO4908463) against anaerobic bacteria” (Antimicrob Agents Chemother, 2009).

What was measured:
Type in all cases: functional
Schaalia odontolytica = assay: Antimicrobial activity against Actinomyces odontolyticus GAI 91002 by agar dilution method in presence of 5% laked sheep blood
Fusobacterium nucleatum [1] = assay: Antimicrobial activity against Fusobacterium nucleatum ATCC 25586 by agar dilution method in presence of 5% laked sheep blood
Bacteroides uniformis = assay: Antimicrobial activity against Bacteroides uniformis by agar dilution method in presence of 5% laked sheep blood
Lactobacillus brevis = assay: Antimicrobial activity against Lactobacillus brevis subsp. brevis JCM 1059 by agar dilution method in presence of 5% laked sheep blood; conditions: Levilactobacillus brevis
Prevotella denticola = assay: Antimicrobial activity against Prevotella denticola GAI 5490 by agar dilution method in presence of 5% laked sheep blood
Clostridium septicum = assay: Antimicrobial activity against Clostridium septicum ATCC 12464 by agar dilution method in presence of 5% laked sheep blood
Bacteroides caccae = assay: Antimicrobial activity against Bacteroides caccae by agar dilution method in presence of 5% laked sheep blood
Parvimonas micra = assay: Antimicrobial activity against Parvimonas micra by agar dilution method in presence of 5% laked sheep blood
Clostridioides difficile [2] = assay: Antimicrobial activity against Clostridium difficile by agar dilution method in presence of 5% laked sheep blood
[3] = system: Staphylococcus saccharolyticus; assay: Antimicrobial activity against Staphylococcus saccharolyticus ATCC 14953 by agar dilution method in presence of 5% laked sheep blood
Clostridium perfringens = assay: Antimicrobial activity against Clostridium perfringens by agar dilution method in presence of 5% laked sheep blood
[4] = system: Lactobacillus acidophilus; assay: Antimicrobial activity against Lactobacillus acidophilus JCM 1132 by agar dilution method in presence of 5% laked sheep blood
Prevotella buccae = assay: Antimicrobial activity against Prevotella buccae ATCC 33574 by agar dilution method in presence of 5% laked sheep blood; conditions: Segatella buccae
[5] = system: Prevotella melaninogenica; assay: Antimicrobial activity against Prevotella melaninogenica JCM 6325 by agar dilution method in presence of 5% laked sheep blood; conditions: ATCC 25845
Prevotella sp. = assay: Antimicrobial activity against Prevotella sp. by agar dilution method in presence of 5% laked sheep blood
Bacteroides fragilis [6] = assay: Antimicrobial activity against Bacteroides fragilis by agar dilution method in presence of 5% laked sheep blood
Bacteroides fragilis [7] = assay: Antimicrobial activity against Bacteroides fragilis GAI 7955 by agar dilution method in presence of 5% laked sheep blood
[8] = system: Peptostreptococcus anaerobius; assay: Antimicrobial activity against Peptostreptococcus anaerobius ATCC 27337 by agar dilution method in presence of 5% laked sheep blood
Fusobacterium mortiferum = assay: Antimicrobial activity against Fusobacterium mortiferum by agar dilution method in presence of 5% laked sheep blood
Porphyromonas gingivalis [9] = assay: Antimicrobial activity against Porphyromonas gingivalis ATCC 33277 by agar dilution method in presence of 5% laked sheep blood
Prevotella intermedia = assay: Antimicrobial activity against Prevotella intermedia by agar dilution method in presence of 5% laked sheep blood
Eubacterium limosum = assay: Antimicrobial activity against Eubacterium limosum by agar dilution method in presence of 5% laked sheep blood
Eggerthella lenta [10] = assay: Antimicrobial activity against Eggerthella lenta ATCC 25559 by agar dilution method in presence of 5% laked sheep blood
[11] = Antimicrobial activity against Veillonella dispar ATCC 17748 by agar dilution method in presence of 5% laked sheep blood
[12] = system: Paeniclostridium sordellii; assay: Antimicrobial activity against Clostridium sordellii ATCC 9714 by agar dilution method in presence of 5% laked sheep blood; conditions: Paraclostridium sordellii
Porphyromonas gingivalis [13] = assay: Antimicrobial activity against Porphyromonas gingivalis by agar dilution method in presence of 5% laked sheep blood
[14] = system: Sutterella wadsworthensis; assay: Antimicrobial activity against Sutterella wadsworthensis ATCC 51579 by agar dilution method in presence of 5% laked sheep blood
[15] = system: Prevotella melaninogenica; assay: Antimicrobial activity against Prevotella melaninogenica by agar dilution method in presence of 5% laked sheep blood
[16] = system: Porphyromonas asaccharolytica; assay: Antimicrobial activity against Porphyromonas asaccharolyticus by agar dilution method in presence of 5% laked sheep blood
[17] = system: Bacteroides thetaiotaomicron; assay: Antimicrobial activity against Bacteroides thetaiotaomicron by agar dilution method in presence of 5% laked sheep blood
Lacticaseibacillus casei = assay: Antimicrobial activity against Lactobacillus casei subsp. casei JCM 1134 by agar dilution method in presence of 5% laked sheep blood
Prevotella corporis = assay: Antimicrobial activity against Prevotella corporis GAI 91000 by agar dilution method in presence of 5% laked sheep blood
[18] = system: Parabacteroides distasonis; assay: Antimicrobial activity against Parabacteroides distasonis by agar dilution method in presence of 5% laked sheep blood
[19] = system: Peptoniphilus asaccharolyticus; assay: Antimicrobial activity against Peptoniphilus asaccharolyticus by agar dilution method in presence of 5% laked sheep blood
Eggerthella lenta [20] = assay: Antimicrobial activity against Eggerthella lenta by agar dilution method in presence of 5% laked sheep blood
Finegoldia magna = assay: Antimicrobial activity against Finegoldia magna by agar dilution method in presence of 5% laked sheep blood
Clostridioides difficile [21] = assay: Antimicrobial activity against Clostridium difficile GAI 10029 by agar dilution method in presence of 5% laked sheep blood
Odoribacter splanchnicus = assay: Antimicrobial activity against Odoribacter splanchnicus by agar dilution method in presence of 5% laked sheep blood
[22] = system: Streptococcus constellatus; assay: Antimicrobial activity against Streptococcus constellatus ATCC 27923 by agar dilution method in presence of 5% laked sheep blood
Porphyromonas uenonis = assay: Antimicrobial activity against Porphyromonas uenonis by agar dilution method in presence of 5% laked sheep blood
Phocaeicola vulgatus = assay: Antimicrobial activity against Bacteroides vulgatus by agar dilution method in presence of 5% laked sheep blood
[23] = system: Bacteroides eggerthii DSM 20697; assay: Antimicrobial activity against Bacteroides eggerthii ATCC 27754 by agar dilution method in presence of 5% laked sheep blood
Fusobacterium nucleatum [24] = assay: Antimicrobial activity against Fusobacterium nucleatum by agar dilution method in presence of 5% laked sheep blood
[25] = system: Lactiplantibacillus plantarum; assay: Antimicrobial activity against Lactobacillus plantarum JCM 1149 by agar dilution method in presence of 5% laked sheep blood

C[C@@H](O)[C@H]1C(=O)N2C(C(=O)O)=C(S[C@@H]3CN[C@H](C(=O)N(C)C)C3)[C@H](C)[C@H]12 [MEROPENEM]
MIC (Schaalia odontolytica): 0.5 µg/mL
MIC (Fusobacterium nucleatum [1]): 8 µg/mL
MIC50 (Bacteroides uniformis): 0.25 µg/mL
MIC90 (Bacteroides uniformis): 4 µg/mL
MIC (Lactobacillus brevis): 0.5 µg/mL
MIC (Prevotella denticola): 0.06 µg/mL
MIC (Clostridium septicum): 0.06 µg/mL
MIC50 (Bacteroides caccae): 0.25 µg/mL
MIC90 (Bacteroides caccae): 4 µg/mL
MIC50 (Parvimonas micra): 0.06 µg/mL
MIC90 (Parvimonas micra): 0.125 µg/mL
MIC50 (Clostridioides difficile [2]): 2 µg/mL
MIC90 (Clostridioides difficile [2]): 4 µg/mL
MIC [3]: 0.125 µg/mL
MIC50 (Clostridium perfringens): ≤ 0.015 µg/mL
MIC90 (Clostridium perfringens): 0.03 µg/mL
MIC [4]: 0.25 µg/mL
MIC (Prevotella buccae): 0.25 µg/mL
MIC [5]: 0.125 µg/mL
MIC50 (Prevotella sp.): 0.125 µg/mL
MIC90 (Prevotella sp.): 0.25 µg/mL
MIC50 (Bacteroides fragilis [6]): 0.25 µg/mL
MIC90 (Bacteroides fragilis [6]): 0.5 µg/mL
MIC (Bacteroides fragilis [7]): 2 µg/mL
MIC [8]: 0.5 µg/mL
MIC50 (Fusobacterium mortiferum): 0.03 µg/mL
MIC90 (Fusobacterium mortiferum): 0.125 µg/mL
MIC (Porphyromonas gingivalis [9]): ≤ 0.015 µg/mL
MIC50 (Prevotella intermedia): 0.06 µg/mL
MIC90 (Prevotella intermedia): 0.125 µg/mL
MIC50 (Eubacterium limosum): 0.5 µg/mL
MIC90 (Eubacterium limosum): 1 µg/mL
MIC (Eggerthella lenta [10]): 1 µg/mL
MIC [11]: 0.03 µg/mL
MIC [12]: 0.03 µg/mL
MIC50 (Porphyromonas gingivalis [13]): ≤ 0.015 µg/mL
MIC90 (Porphyromonas gingivalis [13]): 0.03 µg/mL
MIC [14]: 0.06 µg/mL
MIC50 [15]: 0.125 µg/mL
MIC90 [15]: 0.25 µg/mL
MIC50 [16]: ≤ 0.015 µg/mL
MIC90 [16]: 0.03 µg/mL
MIC50 [17]: 0.5 µg/mL
MIC90 [17]: 2 µg/mL
MIC (Lacticaseibacillus casei): 2 µg/mL
MIC (Prevotella corporis): 0.03 µg/mL
MIC50 [18]: 0.25 µg/mL
MIC90 [18]: 4 µg/mL
MIC50 [19]: ≤ 0.015 µg/mL
MIC90 [19]: 0.125 µg/mL
MIC50 (Eggerthella lenta [20]): 0.5 µg/mL
MIC90 (Eggerthella lenta [20]): 1 µg/mL
MIC50 (Finegoldia magna): 0.125 µg/mL
MIC90 (Finegoldia magna): 0.125 µg/mL
MIC (Clostridioides difficile [21]): 4 µg/mL
MIC50 (Odoribacter splanchnicus): 0.25 µg/mL
MIC90 (Odoribacter splanchnicus): 4 µg/mL
MIC [22]: 0.05 µg/mL
MIC50 (Porphyromonas uenonis): ≤ 0.015 µg/mL
MIC90 (Porphyromonas uenonis): 0.03 µg/mL
MIC50 (Phocaeicola vulgatus): 0.25 µg/mL
MIC90 (Phocaeicola vulgatus): 4 µg/mL
MIC [23]: 0.125 µg/mL
MIC50 (Fusobacterium nucleatum [24]): 0.03 µg/mL
MIC90 (Fusobacterium nucleatum [24]): 0.125 µg/mL
MIC [25]: 0.25 µg/mL

CC(=N)N1CC[C@H](SC2=C(C(=O)O)N3C(=O)[C@H]([C@@H](C)O)[C@H]3C2)C1
MIC (Schaalia odontolytica): 0.5 µg/mL
MIC (Fusobacterium nucleatum [1]): 1 µg/mL
MIC50 (Bacteroides uniformis): 1 µg/mL
MIC90 (Bacteroides uniformis): 4 µg/mL
MIC (Lactobacillus brevis): 0.03 µg/mL
MIC (Prevotella denticola): 0.06 µg/mL
MIC (Clostridium septicum): ≤ 0.015 µg/mL
MIC50 (Bacteroides caccae): 1 µg/mL
MIC90 (Bacteroides caccae): 4 µg/mL
MIC50 (Parvimonas micra): 0.125 µg/mL
MIC90 (Parvimonas micra): 0.125 µg/mL
MIC50 (Clostridioides difficile [2]): 4 µg/mL
MIC90 (Clostridioides difficile [2]): 8 µg/mL
MIC [3]: 0.03 µg/mL
MIC50 (Clostridium perfringens): 0.03 µg/mL
MIC90 (Clostridium perfringens): 0.06 µg/mL
MIC [4]: 0.25 µg/mL
MIC (Prevotella buccae): 0.25 µg/mL
MIC [5]: 0.06 µg/mL
MIC50 (Prevotella sp.): 0.125 µg/mL
MIC90 (Prevotella sp.): 0.25 µg/mL
MIC50 (Bacteroides fragilis [6]): 0.25 µg/mL
MIC90 (Bacteroides fragilis [6]): 8 µg/mL
MIC (Bacteroides fragilis [7]): 4 µg/mL
MIC [8]: 0.125 µg/mL
MIC50 (Fusobacterium mortiferum): 0.125 µg/mL
MIC90 (Fusobacterium mortiferum): 2 µg/mL
MIC (Porphyromonas gingivalis [9]): 0.03 µg/mL
MIC50 (Prevotella intermedia): 0.06 µg/mL
MIC90 (Prevotella intermedia): 0.25 µg/mL
MIC50 (Eubacterium limosum): 1 µg/mL
MIC90 (Eubacterium limosum): 2 µg/mL
MIC (Eggerthella lenta [10]): 2 µg/mL
MIC [11]: 0.06 µg/mL
MIC [12]: 0.03 µg/mL
MIC50 (Porphyromonas gingivalis [13]): 0.06 µg/mL
MIC90 (Porphyromonas gingivalis [13]): 0.06 µg/mL
MIC [14]: 0.5 µg/mL
MIC50 [15]: 0.125 µg/mL
MIC90 [15]: 0.25 µg/mL
MIC50 [16]: 0.06 µg/mL
MIC90 [16]: 0.06 µg/mL
MIC50 [17]: 0.5 µg/mL
MIC90 [17]: 2 µg/mL
MIC (Lacticaseibacillus casei): 0.5 µg/mL
MIC (Prevotella corporis): 0.125 µg/mL
MIC50 [18]: 1 µg/mL
MIC90 [18]: 4 µg/mL
MIC50 [19]: 0.03 µg/mL
MIC90 [19]: 0.06 µg/mL
MIC50 (Eggerthella lenta [20]): 1 µg/mL
MIC90 (Eggerthella lenta [20]): 2 µg/mL
MIC50 (Finegoldia magna): 0.25 µg/mL
MIC90 (Finegoldia magna): 0.5 µg/mL
MIC (Clostridioides difficile [21]): 4 µg/mL
MIC50 (Odoribacter splanchnicus): 1 µg/mL
MIC90 (Odoribacter splanchnicus): 4 µg/mL
MIC [22]: 0.25 µg/mL
MIC50 (Porphyromonas uenonis): 0.06 µg/mL
MIC90 (Porphyromonas uenonis): 0.06 µg/mL
MIC50 (Phocaeicola vulgatus): 1 µg/mL
MIC90 (Phocaeicola vulgatus): 4 µg/mL
MIC [23]: 0.25 µg/mL
MIC50 (Fusobacterium nucleatum [24]): 0.125 µg/mL
MIC90 (Fusobacterium nucleatum [24]): 2 µg/mL
MIC [25]: 0.03 µg/mL
